This note sets out measurements from patent US7998989B2, “2-Imino-1,3-thiazoline-based compounds and T-type calcium channel inhibitors containing the same” (Korea Institute of Science and Technology, priority 2007, dated 2011).

Read-outs that look alike come from different tables or passages of the source.

Data set [1] has as its target T1, α1G T-type calcium channel (Homo sapiens, UniProt O43497).
T1 construct: host or cells: HEK293
Nature of the data set: Assay for % inhibiting activity against T-type calcium channel using FDSS6000 (fluo-3 calcium imaging, KCl activation). The format is cell-based. Put shortly: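 HEK293 cells stably expressing α1G and Kir2.1 loaded with 5 μM fluo-3/AM, then in HEPES buffer (pH 7.4) with 10 mM CaCl2. Compound applied 75 s before 75 mM KCl; intracellular Ca2+ read as […] area, % inhibition relative to untreated control.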

[2] abbreviates: HEK293, 10 μM, HEK293 cells stably expressing α1G T-type calcium channel and Kir2.1, compounds of the examples, read-out: FDSS (% inhibition)/10uM.
[3] abbreviates: 10 μM, FDSS (% inhibition), comparative compounds where R6 is a phenyl group, read-out: FDSS.

T1 sequence (O43497 whole entry): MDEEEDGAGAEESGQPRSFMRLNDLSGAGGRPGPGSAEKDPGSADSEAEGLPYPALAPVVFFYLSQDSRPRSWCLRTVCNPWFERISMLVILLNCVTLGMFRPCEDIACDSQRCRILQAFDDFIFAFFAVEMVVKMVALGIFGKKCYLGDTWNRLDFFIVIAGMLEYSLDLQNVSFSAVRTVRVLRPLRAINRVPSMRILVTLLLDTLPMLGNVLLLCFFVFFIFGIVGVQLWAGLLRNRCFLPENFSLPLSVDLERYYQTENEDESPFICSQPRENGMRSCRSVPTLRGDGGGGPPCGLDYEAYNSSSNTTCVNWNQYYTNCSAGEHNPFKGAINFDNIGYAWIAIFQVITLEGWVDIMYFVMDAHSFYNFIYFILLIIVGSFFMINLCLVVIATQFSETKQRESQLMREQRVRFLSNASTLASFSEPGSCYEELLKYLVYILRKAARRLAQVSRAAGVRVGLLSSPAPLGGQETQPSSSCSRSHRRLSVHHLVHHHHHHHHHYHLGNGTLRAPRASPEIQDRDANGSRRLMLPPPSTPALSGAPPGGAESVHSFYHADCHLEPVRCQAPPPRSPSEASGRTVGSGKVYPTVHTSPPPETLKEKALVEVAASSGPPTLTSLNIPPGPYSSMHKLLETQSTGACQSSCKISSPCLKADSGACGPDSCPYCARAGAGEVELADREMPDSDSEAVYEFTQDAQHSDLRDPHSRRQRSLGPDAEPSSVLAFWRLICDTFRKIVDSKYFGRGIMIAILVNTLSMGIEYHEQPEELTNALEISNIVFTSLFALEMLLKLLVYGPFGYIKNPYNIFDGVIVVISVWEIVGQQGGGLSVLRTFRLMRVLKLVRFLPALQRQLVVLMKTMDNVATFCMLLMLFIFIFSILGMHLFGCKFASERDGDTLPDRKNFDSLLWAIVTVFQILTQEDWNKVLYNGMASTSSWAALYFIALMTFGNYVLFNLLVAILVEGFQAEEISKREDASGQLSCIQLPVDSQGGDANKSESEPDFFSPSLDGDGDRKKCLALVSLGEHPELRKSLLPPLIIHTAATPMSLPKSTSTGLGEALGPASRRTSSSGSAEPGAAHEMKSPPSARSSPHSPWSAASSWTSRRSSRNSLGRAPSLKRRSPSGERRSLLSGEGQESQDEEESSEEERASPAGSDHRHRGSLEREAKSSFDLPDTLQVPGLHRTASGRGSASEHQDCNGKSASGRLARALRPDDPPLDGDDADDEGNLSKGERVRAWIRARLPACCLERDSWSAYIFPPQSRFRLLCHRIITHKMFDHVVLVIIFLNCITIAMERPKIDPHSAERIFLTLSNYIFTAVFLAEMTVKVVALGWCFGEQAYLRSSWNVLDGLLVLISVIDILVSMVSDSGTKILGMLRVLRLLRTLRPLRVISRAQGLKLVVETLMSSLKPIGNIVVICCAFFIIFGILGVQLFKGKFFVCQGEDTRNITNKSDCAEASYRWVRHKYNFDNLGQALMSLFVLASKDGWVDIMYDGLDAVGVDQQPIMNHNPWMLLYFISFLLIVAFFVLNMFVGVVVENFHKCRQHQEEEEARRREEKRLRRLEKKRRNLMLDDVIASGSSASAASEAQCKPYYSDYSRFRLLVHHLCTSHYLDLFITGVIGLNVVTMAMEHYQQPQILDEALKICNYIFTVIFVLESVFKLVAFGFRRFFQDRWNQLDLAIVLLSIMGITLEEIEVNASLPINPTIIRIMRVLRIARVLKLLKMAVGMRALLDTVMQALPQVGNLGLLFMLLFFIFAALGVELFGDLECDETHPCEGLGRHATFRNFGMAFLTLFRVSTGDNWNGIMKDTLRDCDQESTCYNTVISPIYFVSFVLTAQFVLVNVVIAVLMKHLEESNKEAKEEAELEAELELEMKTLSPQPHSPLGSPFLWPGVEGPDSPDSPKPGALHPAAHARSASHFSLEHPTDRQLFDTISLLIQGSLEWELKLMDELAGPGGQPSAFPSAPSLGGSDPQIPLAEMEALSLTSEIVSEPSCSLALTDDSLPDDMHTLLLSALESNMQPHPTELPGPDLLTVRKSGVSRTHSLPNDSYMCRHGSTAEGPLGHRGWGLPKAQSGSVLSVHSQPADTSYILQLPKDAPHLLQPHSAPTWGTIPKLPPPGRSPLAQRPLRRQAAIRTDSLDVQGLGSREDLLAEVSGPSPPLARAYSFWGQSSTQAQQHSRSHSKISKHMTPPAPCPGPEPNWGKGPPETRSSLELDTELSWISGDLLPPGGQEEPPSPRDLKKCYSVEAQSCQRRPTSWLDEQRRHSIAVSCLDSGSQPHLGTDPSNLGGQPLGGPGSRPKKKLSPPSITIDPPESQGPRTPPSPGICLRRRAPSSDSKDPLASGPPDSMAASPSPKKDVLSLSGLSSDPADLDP

Take `CN1C(=NC2CCCC2)SCC1CC(=O)Nc1ccc(Oc2ccccc2)cc1.Cl` (stereo not shown) [KHG24099, (2-cyclopentylimino-3-methyl-1,3-thiazolidine-4-yl)-N-(4-phenoxyphenyl)-acetamide hydrochloride]: the melting point was in the range of 230 to 230.5 °C. Besides, in data set [1] (setting [2]), the inhibition at 10 µM was found to be 58.2%.
On the same counts, the results for `Cc1ccccc1CNC(=O)CC1CSC(=NC2CCCCC2)N1C.Cl` (stereo not shown) [KHG24082, (2-cyclohexylimino-3-methyl-1,3-thiazolidine-4-yl)-N-(2-methylbenzyl)-acetamide hydrochloride] are 220 to 221 °C and 37.4%.
For the compound `COc1ccc(CNC(=O)C2CSC(=NC3CCCCCC3)N2C)cc1.Cl` (stereo not shown) [KHG24339, (2-cycloheptylimino-3-methyl-1,3-thiazolidine-4-yl)-N-(4-methoxybenzyl)-carboxamide hydrochloride], the melting point is 156 to 159 °C. For the same compound, the inhibition at 10 µM in data set [1] (setting [2]) worked out at 44.2%.
As for `Cl.O=C(CC1CSC(=NC2CCCCC2)N1C1CC1)Nc1cc(Cl)ccc1F` (stereo not shown) [KHG24271, [2-cyclohexylimino-3-cyclopropyl-1,3-thiazolidine-4-yl]-N-(5-chloro-2-fluorophenyl)-acetamide hydrochloride], the melting point was 183.7 °C. The inhibition at 10 µM in data set [1] (setting [2]) was 37.8%.
In the same order, the values of `Cl.O=C(CC1CSC(=NC2CCCCC2)N1C1CC1)Nc1cc(C(F)(F)F)cc(C(F)(F)F)c1` (stereo not shown) [KHG24267, [2-cyclohexylimino-3-cyclopropyl-1,3-thiazolidine-4-yl]-N-(3,5-ditrifluoromethylphenyl)-acetamide hydrochloride] are 197.3 °C and 71%.
Consider `CCCCN1C(=NC2CCCCC2)SCC1CC(=O)Nc1cc(Cl)cc(Cl)c1.Cl` (stereo not shown) [KHG24416, [2-cyclohexylimino-3-(n-butyl)-1,3-thiazolidine-4-yl]-N-(3,5-dichlorophenyl)-acetamide hydrochloride], for which the melting point lay within 153 to 154 °C. Moreover, in data set [1] (setting [2]), the inhibition at 10 µM stood at 59.8%.
On to `CCCCN1C(=NC23CC4CC(CC(C4)C2)C3)SCC1CC(=O)Nc1ccc(C)cc1.Cl` (stereo not shown) [KHG24781, [2-(1-adamantylimino)-3-(n-butyl)-1,3-thiazolidine-4-yl]-N-(4-methylphenyl)-acetamide hydrochloride], for which the melting point came out at 164 °C. Further, in data set [1] (setting [2]), the inhibition at 10 µM came out at 47.2%.
`CCCN1C(=NC2CCCCC2)SCC1CC(=O)Nc1ccc(F)cc1.Cl` (stereo not shown) [KHG24296, [2-cyclohexylimino-3-(n-propyl)-1,3-thiazolidine-4-yl]-N-(4-fluorophenyl)-acetamide hydrochloride]: the melting point turned out to be 169.7 °C. Moreover, in data set [1] (setting [2]), the inhibition at 10 µM was found to be 53.1%.
With `CCCCc1ccc(N=C2SCC(CC(=O)Nc3ccc(Cl)cc3)N2C)cc1.Cl` (stereo not shown) [KHG21654, [2-(4-n-butylphenylimino)-3-methyl-1,3-thiazolidine-4-yl]-N-(4-chlorophenyl)-acetamide hydrochloride], the melting point is 239 to 241 °C. The inhibition at 10 µM in data set [1] (setting [3]) was -1.13%.
On the same counts, the results for `CC(C)c1ccc(NC(=O)CC2CSC(=Nc3ccc(C(F)(F)F)cc3)N2C)cc1.Cl` (stereo not shown) [KHG21943, [2-(4-trifluoromethylphenylimino)-3-methyl-1,3-thiazolidine-4-yl]-N-(4-isopropylphenyl)-acetamide hydrochloride] are 238 to 242.8 °C and -2.56%.
In turn, `CCc1ccc(NC(=O)CC2CSC(=NC34CC5CC(CC(C5)C3)C4)N2C(C)C)cc1.Cl` (stereo not shown) [KHG24832, [2-(1-adamantylimino)-3-isopropyl-1,3-thiazolidine-4-yl]-N-(4-ethylphenyl)-acetamide hydrochloride] showed a melting point of 171 °C. For the same compound, in data set [1] (setting [2]), the inhibition at 10 µM amounted to 46.5%.
For the compound `CC(C)c1ccc(NC(=O)CC2C(C)SC(=NC3CCCCC3)N2C)cc1.Cl` (stereo not shown) [KHG24526, (2-cyclohexylimino-3,5-dimethyl-1,3-thiazolidine-4-yl)-N-(4-isopropylphenyl)-acetamide hydrochloride], the melting point is 265 to 267 °C. Further, the inhibition at 10 µM in data set [1] (setting [2]) was found to be 42.3%.
`CC1SC(=NC2CCCC2)N(C)C1CC(=O)Nc1ccc(C(C)(C)C)cc1.Cl` (stereo not shown) [KHG24656, (2-cyclopentylimino-3,5-dimethyl-1,3-thiazolidine-4-yl)-N-(4-t-butylphenyl)-acetamide hydrochloride]: the melting point was 220 to 223 °C. In addition, the inhibition at 10 µM in data set [1] (setting [2]) stood at 46.1%.
`CC1SC(=NC2CCCCC2)N(C)C1CC(=O)Nc1ccc(C(F)(F)F)cc1.Cl` (stereo not shown) [KHG24527, (2-cyclohexylimino-3,5-dimethyl-1,3-thiazolidine-4-yl)-N-(4-trifluoromethylphenyl)-acetamide hydrochloride] registered a melting point of 190 to 192 °C. Moreover, the inhibition at 10 µM in data set [1] (setting [2]) amounted to 47%.
With `CC1SC(=NC2CCCCCC2)N(C)C1CC(=O)Nc1ccccc1F.Cl` (stereo not shown) [KHG24640, (2-cycloheptylimino-3,5-dimethyl-1,3-thiazolidine-4-yl)-N-(2-fluorophenyl)-acetamide hydrochloride], the melting point was 197 to 199 °C. The inhibition at 10 µM in data set [1] (setting [2]) is 39.6%.
Turning to `CN1C(=NC2CCCCC2)SCC1CC(=O)Nc1ccc(C(C)(C)C)cc1.Cl` (stereo not shown) [KHG24073, (2-cyclohexylimino-3-methyl-1,3-thiazolidine-4-yl)-N-(4-t-butylphenyl)-acetamide hydrochloride], the melting point lay within 234 to 235.5 °C. In data set [1] (setting [2]), the inhibition at 10 µM is 57.3%.
Regarding `CN1C(=NC2CCCCC2)SCC1CC(=O)Nc1ccc(F)cc1F.Cl` (stereo not shown) [KHG24081, (2-cyclohexylimino-3-methyl-1,3-thiazolidine-4-yl)-N-(2,4-difluorophenyl)-acetamide hydrochloride], the melting point is 206 to 208 °C. For the same compound, the inhibition at 10 µM in data set [1] (setting [2]) came to 38.3%.
On to `CCOC(=O)CCOc1cccc(NC(=O)CC2CSC(=NC3CCCCC3)N2C)c1.Cl` (stereo not shown) [KHG24085, (2-cyclohexylimino-3-methyl-1,3-thiazolidine-4-yl)-N-(3-ethoxycarbonylethoxyphenyl)-acetamide hydrochloride], for which the melting point was in the range of 241 to 242 °C. The inhibition at 10 µM in data set [1] (setting [2]) was determined as 52.6%.
On the same counts, the results for `CCc1ccc(NC(=O)CC2CSC(=NC34CC5CC(CC(C5)C3)C4)N2C2CC2)cc1.Cl` (stereo not shown) [KHG24799, [2-(1-adamantylimino)-3-cyclopropyl-1,3-thiazolidine-4-yl]-N-(4-ethylphenyl)-acetamide hydrochloride] are 266 °C and 63.4%.
Consider `CCCCN1C(=NC2CCCCC2)SCC1CC(=O)Nc1ccc(Cl)cc1.Cl` (stereo not shown) [KHG24262, [2-cyclohexylimino-3-(n-butyl)-1,3-thiazolidine-4-yl]-N-(4-chlorophenyl)-acetamide hydrochloride], for which the melting point stood at 194.3 °C. Also, the inhibition at 10 µM in data set [1] (setting [2]) stood at 53%.
The compound `Cl.O=C(CC1CSC(=NC2CCCCC2)N1Cc1ccccc1)Nc1cc(Cl)ccc1F` (stereo not shown) [KHG24408, (2-cyclohexylimino-3-benzyl-1,3-thiazolidine-4-yl)-N-(5-chloro-2-fluorophenyl)-acetamide hydrochloride] registered a melting point of 194.8 °C. The inhibition at 10 µM in data set [1] (setting [2]) was 32.6%.
On the same counts, the results for `CN1C(=NC2CCCC2)SCC1CC(=O)Nc1ccc(Br)cc1.Cl` (stereo not shown) [KHG24098, (2-cyclopentylimino-3-methyl-1,3-thiazolidine-4-yl)-N-(4-bromophenyl)-acetamide hydrochloride] are 228 to 228.5 °C and 50.5%.
Take `CC(C)c1cccc(NC(=O)CC2CSC(=NC3CCCCC3)N2C)c1.Cl` (stereo not shown) [KHG24528, (2-cyclohexylimino-3-methyl-1,3-thiazolidine-4-yl)-N-(3-isopropylphenyl)-acetamide hydrochloride]: the melting point worked out at 160 °C. The inhibition at 10 µM in data set [1] (setting [2]) came out at 54.2%.
Take `CN1C(=NC2CCCCC2)SCC1CC(=O)NCc1ccc(F)cc1.Cl` (stereo not shown) [KHG24112, (2-cyclohexylimino-3-methyl-1,3-thiazolidine-4-yl)-N-(4-fluorobenzyl)-acetamide hydrochloride]: the melting point was in the range of 200 to 201 °C. Further, the inhibition at 10 µM in data set [1] (setting [2]) was 30.3%.
`CC(C)N1C(=NC23CC4CC(CC(C4)C2)C3)SCC1CC(=O)Nc1ccc(CF)cc1.Cl` (stereo not shown) [KHG24829, [2-(1-adamantylimino)-3-isopropyl-1,3-thiazolidine-4-yl]-N-(4-fluoromethylphenyl)-acetamide hydrochloride] registered a melting point of 227 °C. Also, in data set [1] (setting [2]), the inhibition at 10 µM was 69%.
Turning to `CCN1C(=NC2CCCCC2)SCC1CC(=O)Nc1ccc(C)cc1.Cl` (stereo not shown) [KHG24279, [2-cyclohexylimino-3-ethyl-1,3-thiazolidine-4-yl]-N-(4-methylphenyl)-acetamide hydrochloride], the melting point was determined as 211.9 °C. The inhibition at 10 µM in data set [1] (setting [2]) is 44.1%.
On the same counts, the results for `CN1C(=NC23CC4CC(CC(C4)C2)C3)SCC1CC(=O)Nc1cc(Cl)cc(Cl)c1.Cl` (stereo not shown) [KHG24417, [2-(1-adamantyl)imino-3-methyl-1,3-thiazolidine-4-yl]-N-(3,5-dichlorophenyl)-acetamide hydrochloride] are 238 to 240 °C and 59.1%.
For `CC1SC(=NC2CCCCCC2)N(C)C1CC(=O)Nc1ccc([N+](=O)[O-])cc1.Cl` (stereo not shown) [KHG24642, (2-cycloheptylimino-3,5-dimethyl-1,3-thiazolidine-4-yl)-N-(4-nitrophenyl)-acetamide hydrochloride], the melting point is 255 to 258 °C. The inhibition at 10 µM in data set [1] (setting [2]) was found to be 66.7%.
In the case of `CCN1C(=NC2CCCCC2)SCC1CC(=O)Nc1cc([N+](=O)[O-])ccc1F.Cl` (stereo not shown) [KHG24278, [2-cyclohexylimino-3-ethyl-1,3-thiazolidine-4-yl]-N-(2-fluoro-5-nitrophenyl)-acetamide hydrochloride], the melting point was 177 °C. For the same compound, the inhibition at 10 µM in data set [1] (setting [2]) is 53.8%.

What is called melting point is the temperature, or range, at which the solid turns liquid.
